Read-outs that look alike come from different tables or passages of the source.
Key:
[1] = antagonism to adrenaline-induced toxicity; assay type: in vivo, male albino Swiss mice; settings: mouse, in vivo, ip; adrenaline (tartrate) intraperitoneally, mice; mortality 36 hours; read-out: LD50 (fiducial limits for 95%) of adrenaline alone
Description: (§1) The antagonism to adrenaline-induced toxicity was also investigated with the following results. Groups of ten male albino Swiss mice were injected with adrenaline (tartrate) intraperitoneally at progressive logarithmic doses. Other similar groups of animals were injected with 250 mg/kg of the compounds under examination via the same route, 30 minutes before adrenaline administration. Mortality was assessed by means of the Litchfield and Wilcoxon method 36 hours after adrenaline administration.

mice = experiment: in vivo; settings: for tolerance: LD50 intravenously in mice, compared with d,l-carnitine
Source text: (§2) The tolerance of acetyl-d,l-carnitine and of the other aforementioned acyl derivatives of the formula (I), as well as their salts were investigated by comparing the LD50 obtained by administering the compounds intravenously in mice with the LD50 obtained under the same experimental conditions by intravenous injection of d,l-carnitine.

isolated rabbit hearts [2] = experiment: cardiokinetic effect on isolated heart (Langendorff): contractile force after anoxia, positive inotropic effect; settings: for Contractile force, Mean ± S.E.: 10 minutes from interruption of anoxic period
Summary of the method: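 Rabbit hearts were perfused Langendorff-style with oxygenated Ringer at 38.2 °C. Anoxia was applied until contractile force dropped by 80%, then the hearts were reoxygenated with or without compound. Contractile force was expressed as a percentage 10 min after the anoxic period ended.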

isolated rabbit hearts [3] = experiment: coronary vasodilator effect: coronary flow, isolated heart (Langendorff)
Summary of the method: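 Langendorff-perfused isolated rabbit hearts in oxygenated Ringer at 38.2° C; anoxia imposed until contractile force fell by 80%, then reoxygenated with or without test compound. Coronary flow, isometric contraction and ECG recorded by polygraph.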

isolated rat atrium = experiment: antiarrhythmic effect, isolated rat atrium method of M. Libonati and G. Segre; settings: for Mean percent variation versus controls: excitability (-%) / Mean percent variation versus controls: frequency max (-%) / inhibition at 0.1 µg/mL / inhibition at 0.01 µg/mL / inhibition at 0.001 µg/mL: decrease; for Mean percent variation versus controls: refractory period (+%) / Mean percent variation versus controls: rheobase (+%) / activation at 0.1 µg/mL / activation at 0.01 µg/mL / activation at 0.001 µg/mL: increase; for inhibition at 0.1 µg/mL / activation at 0.1 µg/mL / inhibition at 0.01 µg/mL / activation at 0.01 µg/mL / inhibition at 0.001 µg/mL / activation at 0.001 µg/mL: Rattus norvegicus
female rats = experiment: antifatigue effect: rota-rod; assay type: in vivo, rat; settings: for responders at 300 mg/kg / responders at 400 mg/kg / responders at 600 mg/kg: Rattus norvegicus, ip, 0.25 h, read-out: percentage of animals staying on the rota-rod more than 180 seconds
Summary of the method: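 Female rats dosed intraperitoneally in saline, with controls given saline alone. Every 15 min after treatment animals were placed on a 6 cm rod rotating at 16 r.p.m. Value is the percentage of animals staying on the rod for more than 180 s, per session.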

[4] = test system: adrenaline-induced toxicity; experiment: antagonism to adrenaline-induced toxicity; assay type: in vivo, male albino Swiss mice
Description: as §1

in vivo = settings: mouse, in vivo, iv
Source text: as §2

[5] = 300 mg/kg i.p., session 1 (every 15 minutes)
[6] = 300 mg/kg i.p., session 2 (every 15 minutes)
[7] = 300 mg/kg i.p., session 4 (every 15 minutes)
[8] = 300 mg/kg i.p., session 5 (every 15 minutes)
[9] = 300 mg/kg i.p., session 6 (every 15 minutes)
[10] = 400 mg/kg i.p., session 1 (every 15 minutes)
[11] = 400 mg/kg i.p., session 2 (every 15 minutes)
[12] = 400 mg/kg i.p., session 3 (every 15 minutes)
[13] = 400 mg/kg i.p., session 4 (every 15 minutes)
[14] = 400 mg/kg i.p., session 5 (every 15 minutes)
[15] = 400 mg/kg i.p., session 6 (every 15 minutes), * p < 0.05
[16] = 600 mg/kg i.p., session 1 (every 15 minutes)
[17] = 600 mg/kg i.p., session 2 (every 15 minutes)
[18] = 600 mg/kg i.p., session 3 (every 15 minutes)
[19] = 600 mg/kg i.p., session 4 (every 15 minutes)
[20] = 600 mg/kg i.p., session 5 (every 15 minutes)
[21] = 600 mg/kg i.p., session 6 (every 15 minutes), * p < 0.05

Work on `CNCC(O)c1ccc(O)c(O)c1` (centres unmarked) [Adrenaline, reference compound] yielded an LD50 at 36 h [1] of 27.7 mg/kg.

With `CC(O)CC(=O)OC(CC(=O)[O-])C[N+](C)(C)C` (centres unmarked) the tolerance (mice) was “better tolerance properties”, the “Approx. LD50” value (mice; intravenously in mice, compounds used as hydrochloryde forms) was about 745 mg/kg and the “Contractile force, Mean ± S.E.” value (isolated rabbit hearts [2]; 1·10^-5 g/lt) was 54.3 ± 6.18%. For the same compound, the “Contractile force, Mean ± S.E.” value (isolated rabbit hearts [2]; 1·10^-6 g/lt) was 30.1 ± 4.62%, the “Contractile force, Mean ± S.E.” value (isolated rabbit hearts [2]; 5·10^-6 g/lt) was 38.6 ± 7.12% and the positive inotropic effect (isolated rabbit hearts [2]; equal concentrations in the perfusion fluid, Student's t test) was “greater positive inotropic effect than that induced by d,l-carnitine”. The “Coronary flow, Mean ± S.E.” value (isolated rabbit hearts [3]; 1·10^-5 g/lt) was 89.19 ± 6.75%, the “Coronary flow, Mean ± S.E.” value (isolated rabbit hearts [3]; 1·10^-6 g/lt) was 73.12 ± 6.80% and the “Coronary flow, Mean ± S.E.” value (isolated rabbit hearts [3]; 5·10^-6 g/lt) was 76.04 ± 8.96%. For the same compound, the “Mean percent variation versus controls: excitability (-%)” value (isolated rat atrium; 1·10^-4 g/lt) was 63.60%, the “Mean percent variation versus controls: frequency max (-%)” value (isolated rat atrium; 1·10^-4 g/lt) was 42.30% and the “Mean percent variation versus controls: refractory period (+%)” value (isolated rat atrium; 1·10^-4 g/lt) was 27.10%. For the same compound, the “Mean percent variation versus controls: rheobase (+%)” value (isolated rat atrium; 1·10^-4 g/lt) was 42.12%, the “Mean percent variation versus controls: excitability (-%)” value (isolated rat atrium; 1·10^-5 g/lt) was 19.12% and the “Mean percent variation versus controls: frequency max (-%)” value (isolated rat atrium; 1·10^-5 g/lt) was 23.20%. The “Mean percent variation versus controls: refractory period (+%)” value (isolated rat atrium; 1·10^-5 g/lt) was 20.31%, the “Mean percent variation versus controls: rheobase (+%)” value (isolated rat atrium; 1·10^-5 g/lt) was 25.35% and the “Mean percent variation versus controls: excitability (-%)” value (isolated rat atrium; 1·10^-6 g/lt) was 12.07%. For the same compound, the “Mean percent variation versus controls: frequency max (-%)” value (isolated rat atrium; 1·10^-6 g/lt) was 10.02%, the “Mean percent variation versus controls: refractory period (+%)” value (isolated rat atrium; 1·10^-6 g/lt) was 16.32% and the “Mean percent variation versus controls: rheobase (+%)” value (isolated rat atrium; 1·10^-6 g/lt) was 9.78%. For the same compound, the antiarrhythmic effect (isolated rat atrium; isolated rat atrium) was “most clear cut antiarrhythmic properties”, the “percentage of animals staying on the rota-rod more than 180 seconds” value (shortened to “percentage of animals staying”) (female rats; [5]) was 0% and the “percentage of animals staying” value (female rats; [6]) was 0%. For the same compound, the “percentage of animals staying” value (female rats; 300 mg/kg i.p., session 3 (every 15 minutes)) was 0%, the “percentage of animals staying” value (female rats; [7]) was 0% and the “percentage of animals staying” value (female rats; [8]) was 10.0%. For the same compound, the “percentage of animals staying” value (female rats; [9]) was 20.0%, the “percentage of animals staying” value (female rats; [10]) was 0% and the “percentage of animals staying” value (female rats; [11]) was 0%. The “percentage of animals staying” value (female rats; [12]) was 10.0%, the “percentage of animals staying” value (female rats; [13]) was 20.0% and the “percentage of animals staying” value (female rats; [14]) was 20.0%. The “percentage of animals staying” value (female rats; [15]) was 30.0%, the “percentage of animals staying” value (female rats; [16]) was 0% and the “percentage of animals staying” value (female rats; [17]) was 0%. The “percentage of animals staying” value (female rats; [18]) was 10.0%, the “percentage of animals staying” value (female rats; [19]) was 20.0% and the “percentage of animals staying” value (female rats; [20]) was 30.0%. For the same compound, the “percentage of animals staying” value (female rats; [21]) was 40.0%, the “antagonism to adrenaline-induced toxicity” value ([4]; 250 mg/kg i.p. 30 minutes before adrenaline) was “antagonize adrenaline-induced toxicity to a greater degree than d,l-carnitine” and the “LD50 (fiducial limits for 95%) of adrenaline after the compound” value ([4]; Adrenaline + compound, compound 250 mg/kg i.p. 30 minutes before adrenaline, mice, mortality 36 hours) was 172.15 (110.02-219.48) mg/kg.

In the case of `CC(=O)CC(=O)OC(CC(=O)[O-])C[N+](C)(C)C` (racemic) [acetoacetyl-d,l-carnitine], the LD50 (in vivo) is reported as about 728 mg/kg, the tolerance (mice) is reported as “better tolerance properties” and the “Contractile force, Mean ± S.E.” value (isolated rabbit hearts [2]; 1·10^-5 g/lt) is reported as 58.3 ± 5.08%. For the same compound, the “Contractile force, Mean ± S.E.” value (isolated rabbit hearts [2]; 1·10^-6 g/lt) was 30.1 ± 3.98%, the “Contractile force, Mean ± S.E.” value (isolated rabbit hearts [2]; 5·10^-6 g/lt) was 38.2 ± 4.66% and the “Coronary flow, Mean ± S.E.” value (isolated rabbit hearts [3]; 1·10^-5 g/lt) was 89.82 ± 6.38%. The “Coronary flow, Mean ± S.E.” value (isolated rabbit hearts [3]; 1·10^-6 g/lt) was 74.65 ± 3.54%, the “Coronary flow, Mean ± S.E.” value (isolated rabbit hearts [3]; 5·10^-6 g/lt) was 75.70 ± 10.1% and the inhibition at 0.1 µg/mL (isolated rat atrium; 1·10^-4 g/lt, read-out: Mean percent variation versus controls: excitability (-%)) was 40.1%. The inhibition at 0.1 µg/mL (isolated rat atrium; 1·10^-4 g/lt, read-out: Mean percent variation versus controls: frequency max (-%)) was 25.5%, the activation at 0.1 µg/mL (isolated rat atrium; 1·10^-4 g/lt, read-out: Mean percent variation versus controls: refractory period (+%)) was 22.8% and the activation at 0.1 µg/mL (isolated rat atrium; 1·10^-4 g/lt, read-out: Mean percent variation versus controls: rheobase (+%)) was 21.9%. For the same compound, the inhibition at 0.01 µg/mL (isolated rat atrium; 1·10^-5 g/lt, read-out: Mean percent variation versus controls: excitability (-%)) was 27.1%, the inhibition at 0.01 µg/mL (isolated rat atrium; 1·10^-5 g/lt, read-out: Mean percent variation versus controls: frequency max (-%)) was 22.7% and the activation at 0.01 µg/mL (isolated rat atrium; 1·10^-5 g/lt, read-out: Mean percent variation versus controls: refractory period (+%)) was 14.7%. It also gave an activation at 0.01 µg/mL (isolated rat atrium; 1·10^-5 g/lt, read-out: Mean percent variation versus controls: rheobase (+%)) of 9.94%, an inhibition at 0.001 µg/mL (isolated rat atrium; 1·10^-6 g/lt, read-out: Mean percent variation versus controls: excitability (-%)) of 12.2% and an inhibition at 0.001 µg/mL (isolated rat atrium; 1·10^-6 g/lt, read-out: Mean percent variation versus controls: frequency max (-%)) of 7.34%. It also gave an activation at 0.001 µg/mL (isolated rat atrium; 1·10^-6 g/lt, read-out: Mean percent variation versus controls: refractory period (+%)) of 10.7%, an activation at 0.001 µg/mL (isolated rat atrium; 1·10^-6 g/lt, read-out: Mean percent variation versus controls: rheobase (+%)) of 3.01% and a responders at 300 mg/kg (female rats; [5]) of 0%. For the same compound, the responders at 300 mg/kg (female rats; [6]) was 0%, the responders at 300 mg/kg (female rats; [7]) was 10% and the responders at 300 mg/kg (female rats; [8]) was 10%. It also gave a responders at 300 mg/kg (female rats; [9]) of 10%, a responders at 400 mg/kg (female rats; [10]) of 0% and a responders at 400 mg/kg (female rats; [11]) of 0%. For the same compound, the responders at 400 mg/kg (female rats; [12]) was 20%, the responders at 400 mg/kg (female rats; [13]) was 20% and the responders at 400 mg/kg (female rats; [14]) was 20%. For the same compound, the responders at 400 mg/kg (female rats; [15]) was 30%, the responders at 600 mg/kg (female rats; [16]) was 0% and the responders at 600 mg/kg (female rats; [17]) was 10%. The responders at 600 mg/kg (female rats; [18]) was 20%, the responders at 600 mg/kg (female rats; [19]) was 40% and the responders at 600 mg/kg (female rats; [20]) was 40%. The responders at 600 mg/kg (female rats; [21]) was 40%.

From patent US4194006A, “Therapeutic application of acetyl-d,l-carnitine and other acyl derivatives of d,l-carnitine” (priority 1977, dated 1980)
